Assay [1] concerns the target T1, Elk-1 and MZF-1 DNA-binding activity at the PKCα promoter (Homo sapiens, UniProt P19419+P28698).
T1 construct: Primers and restriction enzyme (R.E.) sites for the full-length and truncated MZF-1, Elk-1; expressed in transfected cells; host or cells: HEK-293 (nuclear extracts)
Kind of assay: EMSA of Elk-1 and MZF-1 binding to PKCα promoter probe, nuclear extracts of transfected HEK-293 cells. The note with it: biotin-labeled WT PKCα promoter probe. The class given is biochemical. How it is done: The biotin-labeled WT oligonucleotide probes were incubated with the indicated concentration of nuclear extracts of the different-treated HEK-293 cells, which were transfected with empty vector, Elk-1, MZF-1, MZF-160-72 or mutant MZF-160-72 and the reactions were resolved on a nondenaturing polyacrylamide gel. DNA-protein complexes are indicated by the black arrow-head.
The biotin-labeled wild-type oligonucleotide probes were incubated with the indicated concentration of nuclear extracts of the different-treated HEK-293 cells, which were transfected with empty vector, Elk-1, MZF-1, Elk-1145-157 or mutant Elk-1145-157.
EMSA analysis was performed using a LightShift™ chemiluminescent EMSA kit (Pierce). 15 μg of nuclear extract was used for each EMSA analysis. […] The membrane was immediately cross-linked at 120 mJ/cm^2 using an UV transilluminator and then analyzed via chemiluminescence according to the manufacturer's instructions.

A further assay deals with T2, MZF-1/Elk-1 interaction (Homo sapiens, UniProt P19419+P28698).
T2 construct: FLAG-Elk-1; 1-428; MZF-1-c-Myc; 1-485; His (from the myc-His vector) (C); expressed in transfected cells; host or cells: HEK-293 (lysates)
Kind of assay: Co-immunoprecipitation of MZF-1 and Elk-1 in HEK-293 lysates with added TAT-fused peptides. In kind it is binding. The note with it: 50, 100 and 150 nmol peptide added to lysates, overnight at 4° C. The protocol: HEK-293 cells were transfected with empty vector, FLAG-Elk-1, MZF-1-c-Myc, FLAG-MZF-1 or Elk-1-cMyc construct. ‘+’ indicates the presence of each item and ‘-’ indicates their absence. Different concentrations (50, 100 and 150 nmol) of TAT-fused peptides (normal or mutant) were then added to the lysates and incubated overnight at 4° C. and then subjected to immunoprecipitation with anti-c-Myc antibody, followed by immunoblotting against FLAG and c-Myc. Lysates of HEK-293 cells transfected with FLAG-Elk-1 or FLAG-MZF-1 vector indicated as a “Input”.

The test system of assay [2] is Hs578T and MDA-MB-231 cells. Kind of assay: Cell migration assay after treatment with TAT-fused peptides. The note with it: 3 days after addition of the peptides. The class given is cell-based, human. How it is done:
The cell migration assay was performed 3 days after the addition of the peptides to the cells.
(§1) The TAT-fused peptides were designed such that the TAT moiety corresponds to amino acid residues 48-57 of the HIV TAT protein, the MZF-160-72 moiety corresponds to residue 60-72 of the human MZF-1 protein and the Elk-1145-157 moiety corresponds to residues 145-157 of the human Elk-1 protein. The TAT and MZF-1/Elk-1 moieties were linked by three glycine linker residues. The TAT-fused peptide MZF-1 normal fragment (60-72; […] as SEQ ID NO: 57), MZF-1 mutant fragment (60-72; […] as SEQ ID NO: 58), Elk-1 normal fragment (145-157; […] as SEQ ID NO: 59), and Elk-1 mutant fragment (145-157; […] as SEQ ID NO: 60) were synthesized by MDBio, Inc. (Taipei, Taiwan). For transduction of the TAT fusion proteins cells were cultured to 50-60% confluence. The culture medium was removed and replaced with fresh, serum-free medium, followed by the addition of the TAT fusion proteins at the indicated concentrations. Three days post-treatment the cells were used for migration assays and western blotting.
The migration assay was performed using a 48-well Boyden chamber (Neuro Probe) plated with 8-μm pore size polycarbonate membrane filters (Neuro Probe). […] The migratory phenotypes were determined by counting the cells that migrated to the lower side of the filter through microscopy at 200× magnification.

Assay [3] relates to Hs578T and MDA-MB-231 cells. Briefly: Immunoblotting of protein levels in TAT-fused peptide-treated cells. In kind it is cell-based, human. The note with it: three days post-treatment.
From the text: as §1
(A western blot detects proteins with antibodies after separation by electrophoresis.)

In a further assay the test system is Hs578T cells. Briefly: MTT cell viability with anti-cancer drugs, Hs578T cells. In kind it is cell-based, human.
The subject of the next assay is MDA-MB-231 cells. Kind of assay: MTT cell viability with anti-cancer drugs, MDA-MB-231 cells. In kind it is cell-based, human. The note with it: read-out: 50% inhibitory concentration (IC50), cell viability. The protocol: The level of multidrug resistance protein permeability glycoprotein (P-gp) was determined by upper panel. Cell growth was determined using the MTT assay 2 days after treatment (lower panel).
Cell proliferation was analyzed using the yellow tetrazolium (MTT) assay. Cells were seeded in 24-well plates at 1×10^4 cells/well and cultured in DMEM containing 10% FCS at 37° C. overnight. Cells were treated with or without various plasmids and incubated for 24 or 48 h. After incubation, the medium was replaced with fresh medium, and the cells were incubated with 1 mg/ml MTT for 3 h before being dissolved in 1 ml of DMSO for 30 min. The optical density at 570 nm was measured using a spectrophotometer.
To determine if MZF-160-72 peptide-mediated decrease in P-gp expression sensitizes breast cancer cells to chemotherapeutic agents, MZF-160-72-expressing MDA-MB-231 stable cells were treated with acriflavine and cisplatin (commonly used to treat breast cancer-insert) and their cell viability measured.

The next assay has as its target T3, Elk-1 (Homo sapiens, UniProt P19419).
T3 construct: FLAG-Elk-1; 1-428; expressed in transfected cells; host or cells: HEK-293
T3 sequence (P19419 1-428): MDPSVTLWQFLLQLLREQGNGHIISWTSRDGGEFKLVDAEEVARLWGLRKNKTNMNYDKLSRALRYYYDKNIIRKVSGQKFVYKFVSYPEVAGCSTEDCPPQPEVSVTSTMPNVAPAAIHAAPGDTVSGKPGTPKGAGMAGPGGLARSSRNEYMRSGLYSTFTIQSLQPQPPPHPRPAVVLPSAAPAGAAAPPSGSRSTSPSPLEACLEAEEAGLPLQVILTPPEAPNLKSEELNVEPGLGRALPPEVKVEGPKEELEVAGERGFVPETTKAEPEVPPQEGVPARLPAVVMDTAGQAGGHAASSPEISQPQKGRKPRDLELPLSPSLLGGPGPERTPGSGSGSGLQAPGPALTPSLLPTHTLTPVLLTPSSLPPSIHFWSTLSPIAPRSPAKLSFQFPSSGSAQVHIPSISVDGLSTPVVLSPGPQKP
Kind of assay: Co-immunoprecipitation of MZF-1-c-Myc fragments with FLAG-Elk-1 in transfected HEK-293 cells. In kind it is binding. The note with it: FLAG-Elk-1 plus c-Myc fragment. The protocol: Red bands indicate the fragments that bound Elk-1 as present in the co-immunoprecipitation assay (lower panel). HEK-293 cells were transfected with 5 μg FLAG-Elk-1 and either empty vector or the indicated MZF-1-c-Myc fragment. The c-Myc-fused peptides were Immunoprecipitation by c-Myc monoclonal antibody and then Immunoblotting with the anti-FLAG antibodies. Lysates of HEK-293 cells transfected with the FLAG-Elk-1 only were also Immunoblotting as a control (Input).
MZF-1 contains an acidic domain (amino acids 60-72) with six aspartates or glutamates upstream of the zinc finger regions. To identify the specific residues through which MZF-1 interacts with Elk-1 we designed various protein fragments containing only the relevant interacting domains for co-immunoprecipitation assays (FIG. 14, top). The full-length MZF-1 and MZF-11-72, MZF-11-141, and MZF-160-72 fragments (all contain the acidic domain) all bound Elk-1 (FIG. 14, lower panel) but not MZF-11-60 or MZF-173-485.

For assay [4], the target named is T4, FLAG-MZF-1 (amino acids 1-485) (human, UniProt P28698-2 1-485).
T4 construct: range 1-485; Full-length MZF-1 expressed in HEK-293 cells; not shown: FLAG tag
Briefly: co-immunoprecipitation, HEK-293 cells.

Assay [5] concerns the target T5, FLAG-Elk-1 (amino acids 1-428) (human, UniProt P19419 1-428).
T5 construct: range 1-428; Full-length Elk-1 expressed in HEK-293 cells; not shown: FLAG tag
T5 sequence (looked up): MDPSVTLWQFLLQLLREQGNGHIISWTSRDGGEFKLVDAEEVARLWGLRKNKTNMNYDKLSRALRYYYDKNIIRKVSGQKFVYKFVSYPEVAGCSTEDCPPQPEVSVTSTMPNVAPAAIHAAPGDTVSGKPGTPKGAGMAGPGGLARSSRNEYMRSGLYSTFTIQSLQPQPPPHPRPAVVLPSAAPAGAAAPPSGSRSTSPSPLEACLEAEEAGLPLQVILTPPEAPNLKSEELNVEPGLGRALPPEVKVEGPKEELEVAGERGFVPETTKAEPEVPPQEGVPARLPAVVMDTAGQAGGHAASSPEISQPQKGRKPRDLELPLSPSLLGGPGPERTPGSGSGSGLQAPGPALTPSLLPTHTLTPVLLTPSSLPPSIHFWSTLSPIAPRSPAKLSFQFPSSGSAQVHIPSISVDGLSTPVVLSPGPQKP
Briefly: co-immunoprecipitation (anti-c-Myc IP, anti-FLAG blot), HEK-293 cells.

Setting [6] is: Hs578T cells before MZF-160-72 expression (parental).
Where [7] appears, read: MZF-160-72-expressing Hs578T cells.
The mark [8] stands for this setting: MDA-MB-231 cells before MZF-160-72 expression (parental).
Where [9] appears, read: MZF-160-72-expressing MDA-MB-231 stable cells.

The values that follow come from patent publication US20160362463A1, “Pharmaceutical composition inhibiting interaction between MZF-1 and Elk-1” (China Medical University, priority 2015, published 2016).

Like-named read-outs stand apart in the source and are kept apart here. No end group written: not given here.

T2 sequence (P28698 1-485 isoform P28698-2, one chain of several): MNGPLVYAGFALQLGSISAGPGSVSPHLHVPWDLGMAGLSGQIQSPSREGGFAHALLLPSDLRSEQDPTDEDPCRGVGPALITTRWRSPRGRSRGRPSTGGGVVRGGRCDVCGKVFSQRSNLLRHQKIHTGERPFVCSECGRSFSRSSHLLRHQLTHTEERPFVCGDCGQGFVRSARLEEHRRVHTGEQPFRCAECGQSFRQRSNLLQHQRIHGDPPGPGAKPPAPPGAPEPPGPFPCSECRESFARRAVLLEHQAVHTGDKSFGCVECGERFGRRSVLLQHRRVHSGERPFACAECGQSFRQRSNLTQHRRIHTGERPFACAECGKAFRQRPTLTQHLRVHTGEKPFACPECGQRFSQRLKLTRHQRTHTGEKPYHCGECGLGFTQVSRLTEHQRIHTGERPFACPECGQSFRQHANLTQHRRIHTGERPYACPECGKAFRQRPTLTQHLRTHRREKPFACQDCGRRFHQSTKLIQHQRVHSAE
T1 sequence (P28698 1-485 isoform P28698-2, one chain of several): as above

As to “Elk-1145-157: Heparin-binding domain fragment, amino acids 145-157 of human Elk-1; expressed as c-Myc-fused fragment (LARSSRNEYMRSG; also: c-Myc tag fusion; listed as Homo sapiens)”, the “Elk-1 and MZF-1 DNA-binding activity (EMSA)” value in assay [1] was “decreased Elk-1 and MZF-1 DNA-binding activity in a dose-dependent manner”.

Take “YGRKKRRQRRRGGGLARSSRNEYMRSG (listed as Homo sapiens) [TAT-Elk-1145-157, TAT-fused peptide Elk-1 normal fragment (145-157), three glycine linker residues]”: in the assay with MZF-1/Elk-1 interaction, the “binding of MZF-1 to Elk-1 and vice versa (co-immunoprecipitation)” value is “reduced the binding of MZF-1 to Elk-1 and vice versa in a dose-dependent manner”. For the same molecule, in [2], the cell migration entry was “reduced cell migration”. In [3], the “levels of EMT-related (PKCα, Slug and Vimentin) proteins” value is “noticeably increased”; the “levels of MET-related (E-cadherin) proteins” value is given as “decreased”.

As to “YGRKKRRQRRRGGGDEDTPDQESRLDS (listed as Homo sapiens) [TAT-MZF-160-72, TAT-fused peptide MZF-1 normal fragment (60-72), three glycine linker residues]”, the “binding of MZF-1 to Elk-1 and vice versa (co-immunoprecipitation)” value with MZF-1/Elk-1 interaction was “reduced the binding of MZF-1 to Elk-1 and vice versa in a dose-dependent manner”. Moreover, in [2], the cell migration result was “reduced cell migration”. In assay [3], the “levels of EMT-related (PKCα, Slug and Vimentin) proteins” value is recorded as “noticeably increased”; the “levels of MET-related (E-cadherin) proteins” value is on record as “decreased”.

As for acriflavine, the IC50 worked out at 2.56 µM in the assay with Hs578T cells (setting [6]), 1.33 µM in the assay on Hs578T cells (setting [7]), 2.43 µM in the assay on MDA-MB-231 cells (setting [8]) and 1.49 µM with MDA-MB-231 cells (setting [9]).

For the molecule `N.N.[Cl][Pt][Cl]` [cisplatin], the IC50 was determined as 28 µM in the assay on Hs578T cells (setting [6]), 21.1 µM with Hs578T cells (setting [7]), 23.7 µM with MDA-MB-231 cells (setting [8]) and 16.2 µM in the assay on MDA-MB-231 cells (setting [9]).

As to “mutant MZF-160-72: MZF-1 60-72 fragment with aspartates D61, D67, D70 and D72 changed to uncharged alanine”, in the assay with Elk-1, the “binding to Elk-1 (co-immunoprecipitation)” value is given as “substantially decreased”. Also, in [1], the “Elk-1 and MZF-1 DNA-binding activity (EMSA)” value is reported as “did not affect their binding activity”.

B1: Elk-1-c-Myc fragment, amino acids 145-157 (Mutant) (peptide, UniProt P19419 145-157, looked up)
chain: LAASSANEYMASG
notes: not shown: c-Myc(-His) tag from the pcDNA3.1/myc-His vector
Turning to B1, the binding result in assay [4] is on record as “no binding”.

B2: MZF-1-c-Myc fragment, amino acids 1-60 (other, human, UniProt P28698-2 1-60, looked up)
chain: MNGPLVYAGFALQLGSISAGPGSVSPHLHVPWDLGMAGLSGQIQSPSREGGFAHALLLPS
notes: range 1-60; Expressed in HEK-293 cells; also called MZF-11-60; not shown: c-Myc(-His) tag from the pcDNA3.1/myc-His vector
With B2, the binding result in [5] is “no binding”.
